Drawing on PubChem BioAssay (NCI), this text covers TGI for eight compounds.

Assay in all cases: NCI anticancer screen, dose series, 48 h
The subject of experiment [1] is DMS 114 small cell lung.
Experiment [2] relates to UACC-62 melanoma.
In experiment [3] the test system is SN12C renal.
Experiment [4] concerns HOP-18 NSCLC.
The subject of experiment [5] is SF-295 CNS.
For experiment [6], the system named is NCI-H226 lung.
Experiment [7] relates to OVCAR-3 ovarian.
Experiment [8] relates to A549 NSCLC.
Experiment [9] has as its system NCI-H23 lung.
The test system of experiment [10] is COLO 205 colon.

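In this assay, cells in 96-well plates receive the compound at five concentrations for 48 hours. Endpoints are linearly interpolated between the surrounding concentrations. TGI: total growth inhibition.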 Some results are limits rather than exact numbers.

In the case of `O=c1cccccc1NCCCCCCNc1cccccc1=O`, the TGI in experiment [1], in experiment [2], in experiment [3], in experiment [4], in [5] and in experiment [6] was over 100 µM in each case. The TGI in experiment [7], in [8], in experiment [9] and in experiment [10] was over 100 µM each time.
On to `CC(=O)O[C@]1(C)OC(=O)[C@@H](C)N1[N+](=O)[O-]`, for which the TGI in experiment [1], in [2], in experiment [3], in [4], in experiment [5] and in experiment [6] was over 100 µM each time. Besides, the TGI in experiment [7], in [8], in experiment [9] and in experiment [10] was over 100 µM throughout.
`CC1(C)CCc2cc3c(cc2O1)OCC1c2cc4c(cc2OC31)OCO4` (stereo not given): the TGI in [1], in experiment [2], in experiment [3], in [4], in [5] and in experiment [6] was over 100 µM throughout. Further, the TGI in [7], in experiment [8], in [9] and in experiment [10] was over 100 µM throughout.
Turning to `COc1ccc(N=Nc2c(-c3ccccc3)nn(C(=O)CC(=O)Nc3cccc(Cl)c3)c2-c2ccccc2)cc1`, the TGI in experiment [1] was over 100 µM; in [2], over 100 µM; in [3] it was over 100 µM; in experiment [4], over 100 µM; in experiment [5], over 100 µM; in [6], 68.1 µM. Moreover, the TGI in [7], in experiment [8], in experiment [9] and in experiment [10] was over 100 µM in each case.
Regarding `O=C(c1cc2ccccc2o1)N(Cc1ccccc1)c1ccccc1`, the TGI in experiment [1] is 44.2 µM; in experiment [2], 28.1 µM; in [3] it was 34.7 µM; in [4] it was 65.9 µM; in experiment [5] it was over 100 µM; in experiment [6], 34.9 µM. Besides, the TGI in experiment [7] is 41.2 µM; in experiment [8], over 100 µM; in [9], 71.2 µM; in [10] it was 35.4 µM.
As for `CCSC1(SCC)CC(Cc2ccc(OC)cc2)N(C=NC(C)(C)C)C1` (stereo not given), the TGI in [1] was 43.4 µM; in experiment [2], 67 µM; in experiment [3], 84.4 µM; in experiment [4], over 100 µM; in experiment [5] it was 45.5 µM; in experiment [6] it was over 100 µM. The TGI in experiment [7] is over 100 µM; in experiment [8], over 100 µM; in experiment [9], 43.3 µM; in [10], 74.6 µM.
As for `O=C1N(c2ccccc2)C(=O)C2(SC=NN2Cc2ccccc2)N1c1ccccc1` (stereo not given), the TGI in experiment [1], in experiment [2], in [3], in experiment [4], in [5] and in experiment [6] was over 100 µM in each case. Moreover, the TGI in experiment [7], in [8], in experiment [9] and in experiment [10] was over 100 µM each time.
`O=P(NC12CC3CC(CC(C3)C1)C2)(N1CC1)N1CC1`: the TGI in experiment [1] was over 100 µM; in [2], over 72.2 µM; in experiment [3], over 100 µM; in [4], over 100 µM; in experiment [5] it was over 100 µM; in experiment [6], over 94.8 µM. For the same compound, the TGI in experiment [7] was over 100 µM; in experiment [8], over 100 µM; in [9], over 63.8 µM; in experiment [10] it was over 100 µM.
